Test results as given in US4315017A, “Triazole derivatives” (priority 1978, dated 1982).
Where “and” joins values, the source holds several entries; their conditions need not be identical. Equal values may be shown once.

Assays:
Format in all cases: in vivo
[1] = system: oriental cockroaches (Blatta orientalis); experiment: Synergistic action on oriental cockroaches, treated jar bottom; details: single substance; kill rate after 48 hours
Description: Synergistic action on oriental cockroaches (Blatta orientalis)
After the solvent has evaporated, 5 adult cockroaches (Blatta orientalis) are placed in each jar, and the kill rate is determined after 48 hours.
The application rates are in logarithmic progression and permit a dose-effect curve to be drawn; the LD50 is determined graphically and serves as a basis for assessment.

[2] = system: granery weevils (Sitophilus granarius); experiment: Synergistic action on granary weevils (treated Petri dishes); details: single substance; 4 hours exposure, kill rate after 24 hours
Description: Synergistic action on granery weevils (Sitophilus granarius)
Petri dishes 10 cm in diameter are lined with acetonic solutions of the active ingredients. After the solvent has evaporated, 50 granary weevils are placed in each dish.
After 4 hours, the weevils are transferred to untreated vessels. The kill rate is determined after 24 hours, by counting how many weevils are, after this period has elapsed, capable of leaving an untreated cardboard dish (40 mm in diameter, 10 mm high) within 60 minutes.

[3] = system: houseflies (Musca domestica); experiment: Synergistic action on houseflies, dip experiment; details: single substance; active ingredient concentration in %
Description: Synergistic action on houseflies (Musca domestica; dip experiment)
100 ml of aqueous active ingredient formulations (active ingredient concentration in %) is poured over 20 adult houseflies (Musca domestica) on a filter in a nutsch (15 cm in diameter). A gauze lid prevents the animals from surfacing during treatment. After 5 seconds the formulation is filtered off and the flies are transferred to clean Petri dishes (10 cm in diameter) on the bottom of which a round filter paper has been placed.
The animals in supine position are counted after 4 and 24 hours.

[4] = system: houseflies (Musca domestica); experiment: Synergistic action on houseflies; continuous contact (Petri dish); details: single substance; kill rate after 4 hours
Description: Synergistic action on houseflies (Musca domestica); continuous contact
Both covers and bottoms of Petri dishes 10 cm in diameter are lined with a total per dish of 2 ml of acetonic solutions of the active ingredients. After the solvent has evaporated (about 30 mins.), 10 flies are introduced into each dish.
The kill rate is determined after 4 hours and the LD50 is determined graphically.

[5] = system: houseflies (Musca domestica); experiment: Contact action on houseflies (application to ventral abdomen); details: single substance; kill rate after 4 hours
Description: Contact action on houseflies (Musca domestica)
1 μl of the active ingredient dissolved in acetone is administered to the ventral abdomen of 4-day old imagoes under slight CO2 narcosis. 20 animals treated in the same way are then placed in a cellophane bag having a volume of approximately 500 ml.
After 4 hours the kill rate is determined, a dose-mortality curve is drawn from the different concentrations, and the LD50 is worked out.

Molecule | LD 50 [1] [mg] | LD 50 [2] | LD 50 after 4 hours [3] [%] | LD 50 after 24 hours [3] [%] | LD 50 [4] [mg] | LD 50 [5] [μg/fly]
2,5-diethylphenyl-N-methylcarbamate [Fenethcarb, reference compound] | 0.45 | – | – | – | – | –
C=CCC1=C(C)C(OC(=O)C2C(C=C(C)C)C2(C)C)CC1=O (mixture of isomers) [Allethrin, DL-2-allyl-3-methylcyclopenten-2-on-(1)-yl-(4)-DL-cis,trans-chrysanthemate, reference compound] | 0.11 | – | – | – | – | –
CCOC(=O)CC(SP(=S)(OC)OC)C(=O)OCC (centres unmarked) [Malathion, reference compound] | 0.12 | – | – | – | – | –
ClC(Cn1cncn1)c1ccccc1 (centres unmarked) [No. 1] | > 5.0 | > 2 mg and > 1 mg | 0.085 | 0.05 | > 2.0 | –
ClC(Cn1cncn1)c1ccccc1 (centres unmarked) [No. 2] | > 5.0 | – | > 0.2 | 0.1 | 0.2 | –
Clc1ccc(C=Cn2cncn2)c(Cl)c1 [No. 3] | > 5.0 | – | 0.2 | 0.05 | – | –
Fc1ccc(C=Cn2cncn2)cc1 [No. 4] | > 5.0 | – | – | – | > 2.0 | –
c1ccc(CCCn2cncn2)cc1 [No. 5] | > 2.0 | > 2 mg | > 0.2 | 0.05 | – | > 10
C(=Cc1ccccc1)Cn1cncn1 [No. 6] | 9.0 | > 2 mg | > 0.2 | 0.07 | – | –
CC(c1ccccc1)n1cncn1 (centres unmarked) [No. 7] | > 2.0 | – | – | – | – | –
C=C(Cn1cncn1)c1ccccc1 [No. 8] | 9.0 | > 2 mg | – | – | – | –
Cc1ccc(Cn2cncn2)cc1 [No. 9] | > 2.0 | > 4 mg | – | – | – | –
CCc1ccc(Cn2cncn2)cc1 [No. 10] | > 2.0 | > 2 mg | – | – | – | –
CC(C)(C)c1ccc(Cn2cncn2)cc1 [No. 11] | > 10.0 | > 2 mg | – | – | – | –
Cc1nc(N(C)C)nc(OC(=O)N(C)C)c1C [Pirimicarb, 2-dimethylamino-5,6-dimethyl-4-pyrimidinyl-N,N-dimethylcarbamate, reference compound] | > 30 | – | 0.05 | 0.04 | – | –
